# Reference: patent US20230355599A1, “BIOMARKERS FOR CBL, AND COMPOSITIONS AND METHODS FOR THEIR USE” (NURIX THERAPEUTICS, INC., priority 2022, published 2023)
# Test system: phosphorylated HS1
# Experiment: Phosphorylated HS1 in circulating CD8+ T cells after oral dosing of cynomolgus monkeys (flow cytometry, ex vivo anti-CD3/CD28 stimulation)
# Method: To assess these proximal biomarkers of Cbl-b inhibition on CD8^+ T cells, pharmacodynamic analysis was performed in conjunction with a pharmacokinetic study conducted at Charles River Laboratories. Circulating blood was obtained from cynomolgus monkeys treated with 0.3, 1, 3 or 10 mg/kg of Compound 23 after a single dose and after 3 doses. The response to Cbl-b inhibition on proximal biomarkers (pHS1, pPLCγ2, and pZAP70) was measured in CD8^+ T cells using flow cytometry. This technique is highly quantitative and can measure multiple phosphorylation markers in different cell populations within the same sample.
# Compound 23 was formulated in vehicle (0.2% Tween 80 in DI water+1 eq HCL) and aliquoted into individual (not serially diluted) dosing solutions of 0.3, 1, 3 and 10 mg/mL by stirring for 5-10 min, vortexing, and sonicating again as necessary to produce an even suspension that was stirred constantly at 4° C. to achieve and maintain a homogenous suspension. To prepare vehicle, 0.2% Tween 80 in deionized (DI) water, water was measured into a beaker with continuous stirring. Tween 80 was added sequentially, and stirring continued until the solution dissolved; the solution was stored at 2-8° C.
# For pharmacodynamic analysis, whole blood was obtained from cynomolgus monkeys and used for flow cytometry assays to evaluate phosphorylated biomarkers, pHS1, pPLCγ2, and pZAP70, in circulating CD8^+ T cells.
# On the day of dosing, blood samples were collected via femoral venipuncture in accordance with test facility standard operating procedures. 1 mL/tube of whole blood was collected pre-dose (time 0) and at 0.5, 1, 2, 4, 6, and 24 hours post-dose and added into 2 types of TruCulture tubes (Myriad) for pharmacodynamic analysis. One tube contained media alone and is denoted as “Null”, and the second tube contained 2 μg/mL anti-CD3 and anti-CD28, which were prepared at Nurix prior to the study using cynomolgus specific anti-CD3 (BD Biosciences; SP34-2) and anti-CD28 (Bio X cell; CD28.2) and denoted as “CD3/CD28”. Tubes were shipped by overnight courier on cold pack the day of collection and analyzed for phosphorylated biomarkers of Cbl-b inhibition by flow cytometry.
# Following PD collection, upon receipt of TruCulture tubes, each tube was inverted 5-6 times to ensure a mixed suspension of blood. 30 μg of goat anti-mouse IgG (H+L) antibody (Invitrogen) was added to cross-link the stimulation antibodies and induce synchronized cellular stimulation. Cells were stimulated for 60 minutes alongside non-stimulated controls for each time point.
# All buffers (Phosflow Lyse/Fix Buffer 5×, Phosflow Perm Buffer I; BD Biosciences) were prepared according to the manufacturer's instructions. After 60 minutes of goat anti-mouse IgG (H+L) antibody stimulation, one volume of blood was mixed with 20 volumes of pre-warmed BD Phosflow Lyse/Fix Buffer (1×) by repeated pipetting (8-10 times), then incubated in a 37° C. water bath for 10 min. Cells were washed and centrifuged at 500×g for 5 min (2×) with PBS. Following centrifugation, cell pellets were resuspended in cold BD Phosflow Perm Buffer I (BD) and incubated at 4° C. for 20 min. […]
smiles,measurement,setting,value
C[C@H]1CCCN(Cc2cc3c(c(C(F)(F)F)c2)CN(c2cccc([C@]4(c5nncn5C)C[C@@H](C)C4)c2)C3=O)C1 [Compound 23],phosphorylated HS1 in comparison to baseline,"multiple doses of 10 mg/kg, 3 days of daily oral dosing",significant increases
same,time of peak increase of phosphorylated HS1,"multiple doses of 10 mg/kg, 4 hours post dose",76 h
same,"time of maximal signal, phosphorylated HS1",single dose oral 10 mg/kg,2 hours post dose
same,phosphorylated HS1 sustained after 24 hours,"single dose oral 10 mg/kg, after 24 hours",significant increase
same,phosphorylated HS1 in comparison to baseline,"single dose oral 10 mg/kg, circulating CD8+ T cells, anti-CD3/CD28 stimulated",significant increases
